This is an account of results in patent publication US6656936B1, “Carnitine analogues as topical, microbicidal spermicides” (Virginia Tech Intellectual Properties, Inc., priority 1999, dated 2003).

Series [1] relates to human sperm (semen samples). As to the kind of experiment: Spermicidal activity in the Sander-Cramer test. Format: cell-based. The settings on record: for Highest Spermicidal Dilution (1/X) / MEC (Minimum Effective Concentration) / MEC: n=10; for MEC (Minimum Effective Concentration per Sander-Cramer assay): Table 4, dH2O. The procedure: Semen samples were collected from healthy human volunteers: only specimens with >60×10^6 motile sperm/mL and >50% motility were used. Two-fold serial dilutions of the compounds were prepared in 0.9% saline and incubated with semen samples for 20 seconds. Sperm were assessed under the microscope and positive dilutions (i.e. all observed sperm were immotile) were further incubated at 37° C. for 1 hour with 2 vol. of buffer, and re-examined for sperm motility. If no motile sperm were seen, the positive score was maintained. The Minimum Effective Concentration (MEC) for the compound was calculated using the highest sperm immobilizing dilution and its initial concentration.

In series [2] the test system is Candida albicans. Kind of series: Inhibition of growth of Candida albicans (MIC). The series is classed as cell-based. The settings on record: for MIC: C. albicans, 4 days at 28° C. On the procedure: The Minimum Inhibitory Concentrations (MICs) of Z-10-Z-15 were measured by determining the inhibition of growth of C. albicans in a solution of mineral salts plus yeast extract (See Standard Practice for Determining Resistance of Synthetic Polymeric Material to Fungi. American Society for Testing and Materials (ASTM) Standards on Materials and Environmental Microbiology, 1st Ed., 1987), and amended with glucose (10 g/L) and yeast extract (1 g/L). An aliquot (250 μl) of sterile medium was dispensed into each well of a 96-well microplate. Stock solutions were prepared by dissolving test compounds in 50% (v/v) aqueous dimethylsulfoxide (DMSO). Each well (plus controls) was then inoculated with 5 μl of a suspension of C. albicans. The suspension was then adjusted to provide OD686=0.28. This density contains ca. 2.5×10^7 colony forming units (CFU)^2/mL. The microplates were incubated in the dark for 4 days at 28° C.

The test system of series [3] is HIV-1 (RF strain). Kind of series: In vitro anti-HIV cell-free inactivation assay. The settings on record: for reduction of infective viral titer: 2 minutes exposure. The series is classed as cell-based. The procedure: The assay for in vitro anti-HIV activity followed the previously described procedure (Resnick et al., 1990). An infectious suspension of HIV-1 (RF strain, NIH 1983) was exposed to the compounds for 2 minutes. Immediately after, the mixture was 10-fold serially diluted with medium to terminate compound effect, and the dilutions were incubated with MT-2 target cells at 37° C. The cells were maintained in growth medium at 37° C. for 6 days. HIV-induced cytopathology (syncytium formation) was assessed on day 6 after infection, as was cell viability.

In series [4] the test system is sperm penetration in bovine cervical mucus. As to the kind of experiment: Cervical mucus biodiffusion, Double-End test. The settings on record: testing concentration ten fold MEC; 60 minutes incubation; n=12. On the procedure:
The cervical mucus Biodiffusion properties of (R)Z-14 and (R)-Z-15 analogues were tested in comparison to that of N-9 using the Double-End test (Doncel. 1994). In this test, compound solutions (in 0.9% saline) were incubated for 60 minutes with a 7 cm capillary tube containing bovine cervical mucus (Penetrak®, Biochem Immuno System, Norwell, Mass.) opened at one end. After such incubation, the tubes' open end, which had been in contact with the compound, was sealed. Subsequently, the tubes were cut open at 20 mm from the initial opening, inverted, and immersed in semen so as to allow sperm penetration in an opposite direction to that of the compound diffusion. Sperm cease penetration when they encounter a bioactive concentration of the test compound. Thus, the lower the sperm penetration, the greater the compound's biodiffusion. In addition, the spermicidal activity of the analogues was tested again.

Series [5] can be described thus: Effect of time in CMC formulation on activity and chemical integrity. The series is classed as physicochemical. The procedure: Residual samples of (R)-Z-15 in the CMC formulation were analyzed with ^1H nuclear magnetic resonance (NMR) and Matrix Assisted Laser Desorption Ionization Time of Flight Mass Spectroscopy (MALDI-TOF). For the NMR analyses, samples of the hydrogel were dissolved in D2O. For the MALDI-TOF analysis a sample of the hydrogel was placed in the chamber and subjected to the laser. The MALDI-TOF results are depicted in FIG. 1.

The subject of series [6] is spermatozoa. As to the kind of experiment: Sperm motility inhibition dose-response. Format: cell-based. The settings on record: FIG. 2. The procedure: The ability of Z-15-mucic acid blends [(R)-Z-15-MA and rac-Z-15-MA] to inhibit sperm motility was tested in comparison to (R)-Z-15 alone or N-9. The results are depicted in FIG. 2.
Series [7] can be described thus: pH of sample. Format: physicochemical. An excerpt:
The recent disclosure (Fassi, U.S. Pat. No. 5,952.379) of stable, non-hygroscopic salts of L-(-)[(R)-]acylcamitine and alkanoyl L-(-)-[(R)-]acylcarnitines with mucic acid (MA) (2:1) prompted the exploration of the effects of blending MA with Z-15. Blending reduced the pH of a sample of Z-15 from about 9-10 to about 3.5-3.8. The blends contained only 67% Z-15 as an active ingredient compared to pure Z-15 (100%).

The mark [8] stands for this setting: Table 1, initial conc. 10 mg/ml in dH2O.
The mark [9] stands for this setting: Table 5, initial conc. 10 mg/ml in dH2O.
Setting [10] is: Table 6, initial conc. 10 mg/mL in dH2O.

Values after ≈ are worked out from the molar mass of the structure shown. Marks after values point to notes of the source that are not given here. Where only a bound is given, the exact number is not on record here.

Turning to `CCCCCCCCCCCC[C@@]1(O)C[N+](C)(C)C[C@@H](CC(=O)[O-])O1` [Compound Z-12], in series [1] (setting [8]), the “Highest Spermicidal Dilution (1/X)” value is listed as 27.2 ± 2.3 1/X. Besides, the “MEC (Minimum Effective Concentration)” value in series [1] (setting [8]) came out at 0.407 ± 0.7 mg/mL. Besides, in series [2], the MIC lay within 80 to 100 µg/mL. Also, the “reduction of infective viral titer” value in series [3] (0.032 mg/mL) is given as 0.0 log units; in series [3] (0.1 mg/mL) it was 0.3 log units; in series [3] (0.32 mg/mL), 2.0 log units; in series [3] (1 mg/mL), 2.8 log units; in series [3] (3.2 mg/mL), “≧3.5 log units”; in series [3] (10 mg/mL), “≧4.0^ log units”.
For `CCCCCCCCCCC[C@@]1(O)C[N+](C)(C)C[C@@H](CC(=O)[O-])O1` [Compound Z-11], in series [1] (setting [8]), the “Highest Spermicidal Dilution (1/X)” value is listed as 7.6 ± 0.0 1/X. Besides, in series [1] (setting [8]), the “MEC (Minimum Effective Concentration)” value came to 1.4 ± 0.1 mg/mL. The MIC in series [2] is >100 µg/mL. The “reduction of infective viral titer” value is 0.8 log units in series [3] (0.32 mg/mL), 2.0 log units in series [3] (1 mg/mL), 2.7 log units in series [3] (3.2 mg/mL) and 4.7 log units in series [3] (10 mg/mL).
Take `CCCCCCCCCCCCC[C@@]1(O)C[N+](C)(C)C[C@@H](CC(=O)[O-])O1` [Compound Z-13]: the “Highest Spermicidal Dilution (1/X)” value in series [1] (setting [8]) was 48.0 ± 5.1 1/X. Also, in series [1] (setting [8]), the “MEC (Minimum Effective Concentration)” value was 0.235 ± 0.025 mg/mL. Also, the MIC in series [2] worked out at 40 µg/mL (≈ 108 µM). For the same compound, the “reduction of infective viral titer” value in series [3] (0.032 mg/mL) was determined as 0.5 log units; in series [3] (0.1 mg/mL), 1.5 log units; in series [3] (0.32 mg/mL) it was 2.7 log units; in series [3] (1 mg/mL), 3.3 log units; in series [3] (3.2 mg/mL), 3.5 log units; in series [3] (10 mg/mL) it was 3.5 log units.
Take `CCCCCCCCCCCCCCC[C@@]1(O)C[N+](C)(C)C[C@@H](CC(=O)[O-])O1` [Compound Z-15]: the “spermicidal activity (MEC), in words” value in series [1] (Table 1) is “slightly lower than that of N-9”. Further, the entries for the “Highest Spermicidal Dilution (1/X)” value in series [1] (setting [8]) and in series [1] (setting [9]) were 102.4 ± 9.9 1/X and 73.6 ± 9.1 1/X, respectively. Moreover, the “MEC (Minimum Effective Concentration)” value in series [1] (setting [8]) was 0.109 ± 0.012 mg/mL. The “MEC (Minimum Effective Concentration per Sander-Cramer assay)” value in series [1] was 0.104 ± 0.011 mg/mL. The MEC in series [1] (setting [9]) came out at 0.156 ± 0.019 mg/mL. Further, in series [2], the “C. albicans growth inhibition, in words” value is on record as “highest activity”. For the same compound, the MIC in series [2] turned out to be 2 µg/mL (≈ 5 µM). The “reduction of infective viral titer” value in series [3] (0.032 mg/mL) is recorded as 0.3 log units; in series [3] (0.1 mg/mL), 1.5 log units; in series [3] (0.32 mg/mL), 2.7 log units; in series [3] (1 mg/mL), 3.2 log units; in series [3] (3.2 mg/mL), 3.8 log units; in series [3] (10 mg/mL) it was “≧4.0^ log units”. The “DET % control (test sperm penetration compared to control)” value (“DET % control” for short) in series [4] came out at 16.0 ± 0.0 % control. Besides, the “chemical integrity in formulation (1H NMR, MALDI-TOF)” value in series [5] (six months in the CMC formulation) is “remained unchanged chemically”. Moreover, in series [5] (three months in the CMC formulations), the “spermicidal activity after time in formulation” value is on record as “still active as a spermicide after three months”. In series [6], the “inhibition of sperm motility at concentrations below the MEC, in words” value is recorded as “superior ability of Z-15 over N-9”. Besides, the “pH of a sample” value in series [7] is 9-10.
For “Nonoxynol-9 [Compound N-9, reference compound]”, the “Highest Spermicidal Dilution (1/X)” value in series [1] (setting [8]) is listed as 83.2 ± 18.2 1/X; in series [1] (setting [9]), 33.6 ± 3.5 1/X; in series [1] (setting [10]) it was 73.6 ± 8.4 1/X. Moreover, in series [1] (setting [8]), the “MEC (Minimum Effective Concentration)” value is 0.144 ± 0.011 mg/mL. Also, the “MEC (Minimum Effective Concentration per Sander-Cramer assay)” value in series [1] is 0.144 ± 0.011 mg/mL. Besides, the MEC in series [1] (setting [9]) is reported as 0.329 ± 0.035 mg/mL; in series [1] (setting [10]) it was 0.156 mg/mL. Moreover, the “reduction of infective viral titer” value is reported as 0.5 log units in series [3] (0.032 mg/mL), 2.2 log units in series [3] (0.1 mg/mL), 3.5 log units in series [3] (0.32 mg/mL) and “≧4.0^ log units” in series [3] (1 mg/mL). The “anti-HIV activity, in words” value in series [3] (Table 2) was “slightly more active than these compounds”. Also, the “DET % control” value in series [4] is reported as 17.5 ± 0.7 % control.
On to `CCCCCCCCCC[C@@]1(O)C[N+](C)(C)C[C@@H](CC(=O)[O-])O1` [Compound Z-10], for which the “Highest Spermicidal Dilution (1/X)” value in series [1] (setting [8]) is 4.8 ± 0.5 1/X. Moreover, in series [1] (setting [8]), the “MEC (Minimum Effective Concentration)” value came to 2.3 ± 0.2 mg/mL. Further, the MIC in series [2] is >100 µg/mL. The “reduction of infective viral titer” value in series [3] (0.32 mg/mL) is given as 0.8 log units; in series [3] (1 mg/mL), 1.0 log units; in series [3] (3.2 mg/mL) it was 2.8 log units; in series [3] (10 mg/mL) it was “≧4.0^a log units”.
For the compound `CCCCCCCCCCCCCCCC1(O)C[N+](C)(C)CC(CC(=O)[O-])O1` (racemic) [(rac)-Z-15], the “spermicidal activity, in words” value is “slightly more active than the two enantiomers and significantly more active than N-9” in series [1] (Table 5); “activity equal to that of the R and S enantiomers” in series [1] (Table 6). For the same compound, the “Highest Spermicidal Dilution (1/X)” value is 115.2 ± 23.6 1/X in series [1] (setting [9]) and 108.80 ± 19.20 1/X in series [1] (setting [10]). Further, the MEC in series [1] (setting [9]) is 0.117 ± 0.016 mg/mL; in series [1] (setting [10]), 0.113 mg/mL.
With `CCCCCCCCCCCCCC[C@@]1(O)C[N+](C)(C)C[C@@H](CC(=O)[O-])O1` [Compound Z-14], the “spermicidal activity (MEC), in words” value in series [1] (Table 1) is “slightly lower than that of N-9”. Moreover, in series [1] (setting [8]), the “Highest Spermicidal Dilution (1/X)” value is on record as 102.4 ± 18.5 1/X. Moreover, the “MEC (Minimum Effective Concentration)” value in series [1] (setting [8]) turned out to be 0.121 ± 0.014 mg/mL. Besides, in series [1], the “MEC (Minimum Effective Concentration per Sander-Cramer assay)” value worked out at 0.091 ± 0.008 mg/mL. Besides, the “C. albicans growth inhibition, in words” value in series [2] is listed as “acceptable activity”. The MIC in series [2] was found to be 10 µg/mL (≈ 25.9 µM). Further, the “reduction of infective viral titer” value in series [3] (0.032 mg/mL) was 0.5 log units; in series [3] (0.1 mg/mL), 1.5 log units; in series [3] (0.32 mg/mL), 2.8 log units; in series [3] (1 mg/mL) it was 3.5 log units; in series [3] (3.2 mg/mL), “≧4.0 log units”; in series [3] (10 mg/mL), “≧4.0^ log units”. In series [4], the “DET % control” value came to 18.0 ± 1.2 % control.

The MIC is the lowest concentration that inhibits growth of the organism. Higher therefore signals a need for much substance.
